From patent US20050112573A1, “Method of detecting toxic substance” (priority 2001, published 2005)

Test system: yeast genes (level of expressed mRNA)
Assay: DNA chip analysis of expressed mRNA of yeast genes after 2 h culture with a toxic chemical substance
Type: cell-based, Saccharomyces cerevisiae S288C
Experimental: Yeast (Saccharomyces cerevtisiae S288C (α SUC2mal mel gap2 CUP1)) were cultured at 25° C. on YPD medium (yeast extract 1%, polypepton 2%, glucose 2%). One of toxic chemical substances was added to the cell at logarithmic growth phase, and the cell was further cultured for two hours. Cell was cultured without any chemical substance in the same condition, and was used as control. Concentrations of the chemical substances were defined to inhibit the growth of the yeast but not lead to death.
After the completion of cultivation, the culture was centrifuged to collect the cells. To the cells, sodium acetate buffer (50 mM sodium acetate, 10 mM EDTA, 1% SDS) was added, and the mixture was shaken at 65° C. for five minutes, followed by returning to room temperature, and obtaining the supernatant, which procedure was repeated two times. To the supernatant, ½ amount of a solution of phenol/chloroform was added, and the mixture was centrifuged to give a supernatant, which was added with an equal amount of chloroform, and the mixture was centrifuged to give a supernatant. To the supernatant, an equal amount of isopropanol containing 0.3 M sodium acetate was added, and the mixture was allowed to stand at room temperature for 30 minutes, after which the mixture was centrifuged to give a sediment of the whole RNAs. Seventy % ethanol was added to the sediment, and the mixture was again centrifuged to give a sediment, which was then dried and dissolved in water. mRNA was isolated from the whole RNAs as followings. In view of the fact that a poly A chain is attached to the 3′ terminus of mRNA, a polynucleotide having a poly T structure which was immobilized on the surface of latex beads was used to trap the mRNA, and then the mRNA was washed and eluted with spine column (Oligotex-dT30<Super>mRNA Purification Kit, Takara). Reverse transcription of the mRNA was conducted with a reverse transcriptase (Super Script II Reverse Transcriptase; catalogue No. 18064-014, GibcoBRL) using fluorescence-labeled nucleotides to give cDNAs that were introduced with Cy3-dUTP or Cy5-dUTP during the reverse transcription.
The labeled cDNAs were dissolved in TE buffer (10 mM Tris-HCl/1 mM EDTA, pH8.0), and the solution was dropped on the DNA chip containing the whole genes of yeast (DNA Chip Research Inc. Japan) so that the cDNAs were hybridized on the DNA chip at 65° C. for over 12 hours. The fluoresces intensity of the DNA chip was read with a scanner, and the ratio relative to the fluorescence intensity resulting from the absence of chemical substance was estimated as the following, which is shown in Tables 1 to 9: [formula]
In the Tables, “Intensity” indicated in the rightmost column is a value of the level of expressed mRNA of each gene in control cells as divided by the average level of the expressions of the whole genes.

Oc1cc(Cl)c(Cl)cc1Cl [(6), 2,4,5-trichlorophenol]
The level of expressed mRNA in the presence of chemical substance/The level of expressed mRNA in the absence of chemical substance (yeast gene YAR010C): 2.3
The level of expressed mRNA in the presence of chemical substance/The level of expressed mRNA in the absence of chemical substance (yeast gene YBL005W-A): 1.2
The level of expressed mRNA in the presence of chemical substance/The level of expressed mRNA in the absence of chemical substance (yeast gene YBL041W): 1.7
The level of expressed mRNA in the presence of chemical substance/The level of expressed mRNA in the absence of chemical substance (yeast gene YBL043W): 26.9
The level of expressed mRNA in the presence of chemical substance/The level of expressed mRNA in the absence of chemical substance (yeast gene YBL078C): 2.4
The level of expressed mRNA in the presence of chemical substance/The level of expressed mRNA in the absence of chemical substance (yeast gene YBR214W): 0.8
The level of expressed mRNA in the presence of chemical substance/The level of expressed mRNA in the absence of chemical substance (yeast gene YCL020W): 1.0
The level of expressed mRNA in the presence of chemical substance/The level of expressed mRNA in the absence of chemical substance (yeast gene YCL027W): 1.3
The level of expressed mRNA in the presence of chemical substance/The level of expressed mRNA in the absence of chemical substance (yeast gene YCR004C): 1.8
The level of expressed mRNA in the presence of chemical substance/The level of expressed mRNA in the absence of chemical substance (yeast gene YCR071C): 2.5
The level of expressed mRNA in the presence of chemical substance/The level of expressed mRNA in the absence of chemical substance (yeast gene YCR088W): 2.0
The level of expressed mRNA in the presence of chemical substance/The level of expressed mRNA in the absence of chemical substance (yeast gene YDL008W): 2.7
The level of expressed mRNA in the presence of chemical substance/The level of expressed mRNA in the absence of chemical substance (yeast gene YDL238C): 2.1
The level of expressed mRNA in the presence of chemical substance/The level of expressed mRNA in the absence of chemical substance (yeast gene YDR055W): 3.9
The level of expressed mRNA in the presence of chemical substance/The level of expressed mRNA in the absence of chemical substance (yeast gene YDR084C): 2.1
The level of expressed mRNA in the presence of chemical substance/The level of expressed mRNA in the absence of chemical substance (yeast gene YDR085C): 2.1
The level of expressed mRNA in the presence of chemical substance/The level of expressed mRNA in the absence of chemical substance (yeast gene YDR104C): 1.7
The level of expressed mRNA in the presence of chemical substance/The level of expressed mRNA in the absence of chemical substance (yeast gene YDR115W): 2.3
The level of expressed mRNA in the presence of chemical substance/The level of expressed mRNA in the absence of chemical substance (yeast gene YDR259C): 0.5
The level of expressed mRNA in the presence of chemical substance/The level of expressed mRNA in the absence of chemical substance (yeast gene YDR315C): 9.4
The level of expressed mRNA in the presence of chemical substance/The level of expressed mRNA in the absence of chemical substance (yeast gene YDR358W): 2.5
The level of expressed mRNA in the presence of chemical substance/The level of expressed mRNA in the absence of chemical substance (yeast gene YDR388W): 1.0
The level of expressed mRNA in the presence of chemical substance/The level of expressed mRNA in the absence of chemical substance (yeast gene YDR432W): 0.6
The level of expressed mRNA in the presence of chemical substance/The level of expressed mRNA in the absence of chemical substance (yeast gene YDR481C): 0.9
The level of expressed mRNA in the presence of chemical substance/The level of expressed mRNA in the absence of chemical substance (yeast gene YDR510W): 1.0
The level of expressed mRNA in the presence of chemical substance/The level of expressed mRNA in the absence of chemical substance (yeast gene YEL042W): 0.5
The level of expressed mRNA in the presence of chemical substance/The level of expressed mRNA in the absence of chemical substance (yeast gene YEL066W): 2.2
The level of expressed mRNA in the presence of chemical substance/The level of expressed mRNA in the absence of chemical substance (yeast gene YER039C): 1.6
The level of expressed mRNA in the presence of chemical substance/The level of expressed mRNA in the absence of chemical substance (yeast gene YER107C): 2.5
The level of expressed mRNA in the presence of chemical substance/The level of expressed mRNA in the absence of chemical substance (yeast gene YER130C): 2.7
The level of expressed mRNA in the presence of chemical substance/The level of expressed mRNA in the absence of chemical substance (yeast gene YFL028C): 1.7
The level of expressed mRNA in the presence of chemical substance/The level of expressed mRNA in the absence of chemical substance (yeast gene YFL043C): 1.8
The level of expressed mRNA in the presence of chemical substance/The level of expressed mRNA in the absence of chemical substance (yeast gene YGL158W): 0.4
The level of expressed mRNA in the presence of chemical substance/The level of expressed mRNA in the absence of chemical substance (yeast gene YGL229C): 2.2
The level of expressed mRNA in the presence of chemical substance/The level of expressed mRNA in the absence of chemical substance (yeast gene YGR136W): 1.1
The level of expressed mRNA in the presence of chemical substance/The level of expressed mRNA in the absence of chemical substance (yeast gene YGR189C): 0.5
The level of expressed mRNA in the presence of chemical substance/The level of expressed mRNA in the absence of chemical substance (yeast gene YGR213C): 4.1
The level of expressed mRNA in the presence of chemical substance/The level of expressed mRNA in the absence of chemical substance (yeast gene YGR257C): 2.1
The level of expressed mRNA in the presence of chemical substance/The level of expressed mRNA in the absence of chemical substance (yeast gene YHR004C): 2.0
The level of expressed mRNA in the presence of chemical substance/The level of expressed mRNA in the absence of chemical substance (yeast gene YHR071W): 2.0
The level of expressed mRNA in the presence of chemical substance/The level of expressed mRNA in the absence of chemical substance (yeast gene YHR139C): 1.9
The level of expressed mRNA in the presence of chemical substance/The level of expressed mRNA in the absence of chemical substance (yeast gene YHR142W): 1.2
The level of expressed mRNA in the presence of chemical substance/The level of expressed mRNA in the absence of chemical substance (yeast gene YIL123W): 0.5
The level of expressed mRNA in the presence of chemical substance/The level of expressed mRNA in the absence of chemical substance (yeast gene YIL140W): 0.5
The level of expressed mRNA in the presence of chemical substance/The level of expressed mRNA in the absence of chemical substance (yeast gene YJL073W): 2.0
The level of expressed mRNA in the presence of chemical substance/The level of expressed mRNA in the absence of chemical substance (yeast gene YJL089W): 1.6
The level of expressed mRNA in the presence of chemical substance/The level of expressed mRNA in the absence of chemical substance (yeast gene YJL116C): 3.4
The level of expressed mRNA in the presence of chemical substance/The level of expressed mRNA in the absence of chemical substance (yeast gene YJR004C): 1.2
The level of expressed mRNA in the presence of chemical substance/The level of expressed mRNA in the absence of chemical substance (yeast gene YJR086W): 1.9
The level of expressed mRNA in the presence of chemical substance/The level of expressed mRNA in the absence of chemical substance (yeast gene YKL008C): 3.8
